# Laboratory results published in patent US12637468B2, “Substituted [1,2,4]triazolo[4,3-b]pyridazines as GABAA receptor modulators” (SHANGHAI SIMR BIOTECHNOLOGY CO., LTD., priority 2019, dated 2026).
# Target: T1, α5-GABAA receptor (Homo sapiens, UniProt P18507+P31644)
# T1 construct: expressed in transfected cells; host or cells: HEK293, monoclonal stably transfected line
# Assay: Cell-level screening: whole cell patch clamp, inverse agonist efficacy on α5-GABAA receptor expressed in HEK293
# Assay type: cell-based
# Conditions: drug 100 nM, GABA 0.05 μM, HEK293 expressing α5, β3 and γ2 subunits, clamped at −60 mV; read-out: Compound inverse agonist efficacy %
# Description: The inventors used electrophysiological methods to determine the inverse agonist efficacy of the drugs to be tested on the α5-GABAA receptor. The detailed methods are as follows:
# Different subunits of GABAA receptors were expressed in human […] cell line 293 (HEK293) cell line. The cells were cultured in a culture medium and used as a cell model for screening pain inhibiting drugs. The α, β and γ subunits are necessary to form complete functional GABAA receptors. In this embodiment, the inventors had established the following cell model: α5 subunit (see GenBank Accession No. NM_000810.3 for protein sequences), β3 subunit (see GenBank Accession No. NM_000814.5 for protein sequences) and γ2 subunit (see GenBank Accession No. NM_000816.3 for protein sequences) were expressed in HEK293 cell line at the same time, followed by screening the monoclonal cell line. This cell line contained α5-GABAA receptor and had complete GABAA receptor function.
# The monoclonal stably transfected HEK-293 cells expressing α5-GABAA receptor were cultured in 10 cm culture dishes and passaged when the cells grew to 80%-90%. During passaging, the culture medium was aspirated first, then 3 mL of DPBS phosphate buffer salt (Gibco™) was added to the culture dishes, and the culture dishes were shaken slightly, and DPBS was aspirated. 1 mL of trypsin (TrypLE Express, Gibco™) was added thereto, and the cells were digested at 37° C. for 1-2 minutes. Then 3 mL of complete medium (DMEM+10% FBS (Gibco™)) was added and the cells at the bottom of the culture dishes were dispersed. The cell suspension were transferred to a 15 mL centrifugal tube (Corning) and then centrifuged at 200 g for 3 minutes. The supernatant was discarded, 4 mL of complete medium was added, and the cells were gently blown and resuspended for use. If cell passaging was performed, the cell suspension was diluted at a ratio of 1:5 or 1:10. If cells for electrophysiology use were prepared, the cell suspension was diluted in a ratio of 1:12, then added into a 24-well dish (Corning™) in which glass slides were placed and pretreated with Poly-D-Lysine, and the cells were tested after being attached to the walls. The culture time of cells for electrophysiology use was no more than 48 hours.
# Drug concentration setting: the final drug concentration used in drug screening was 100 nM, and the GABA concentration range was 0.05 μM. The final drug concentrations used in the dose-inversal agonistic efficiency (%) test were 0.3 nM, 3 nM, 10 nM, 30 nM, 100 nM and 300 nM. The whole cell patch clamp technique was used in electrophysiological experiments, which could refer to the literature (I. Lecker, Y. Yin, D. S. Wang and B. A. Orser, (2013) Potentiation of GABAA receptor activity by volatile anaesthetics is reduced by α5-GABAA receptor-preferring inverse agonists, British Journal of Anaesthesia 110 (S1): i73-i81). The components of extracellular solution (ECS) for electrophysiology use were as follows: 150 mM NaCl, 5 mM KCl, 2.5 mM CaCl2), 1 mM MgCl2, 10 mM HEPES and 10 mM glucose (pH 7.4); electrode internal solutions for electrophysiology use were as follows: 140 mM CsCl, 11 mM EGTA, 10 mM HEPES, 2 mM CaCl2), 1 mM MgCl2, 4 mM MgATP, 2 mM TEA (pH 7.3). The signal acquisition used an EPC-10 amplifier and the PatchMaster software (HEKA). The recording electrode was drawn using borosilicate glass, and the electrode resistance was 4 to 6 MΩ. The ALA-VC3-8PP™ system was used for extracellular administration. Separate cells that grew independently was selected for recording. During recording, the cell membrane potential was clamped at −60 mV. During experiment, an extracellular solution was applied to the cells for about 20 seconds. When the baseline reached to a stable state, the extracellular solution was switched to GABA. Then the current induced by GABA could be detected. […]
# T1 sequence (P31644 32-462): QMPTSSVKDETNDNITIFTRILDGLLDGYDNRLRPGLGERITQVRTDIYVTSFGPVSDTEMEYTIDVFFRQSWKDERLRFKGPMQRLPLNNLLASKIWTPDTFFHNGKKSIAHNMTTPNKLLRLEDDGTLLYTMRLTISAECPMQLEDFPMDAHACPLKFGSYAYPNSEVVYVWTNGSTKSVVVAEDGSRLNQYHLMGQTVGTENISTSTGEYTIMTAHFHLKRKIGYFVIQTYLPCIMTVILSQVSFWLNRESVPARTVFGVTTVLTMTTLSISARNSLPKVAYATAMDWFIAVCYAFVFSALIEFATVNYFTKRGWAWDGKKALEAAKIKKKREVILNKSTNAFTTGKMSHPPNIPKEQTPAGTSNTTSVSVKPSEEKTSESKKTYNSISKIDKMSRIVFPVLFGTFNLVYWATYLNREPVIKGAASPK
# T1 sequence (P28472 26-473 partner): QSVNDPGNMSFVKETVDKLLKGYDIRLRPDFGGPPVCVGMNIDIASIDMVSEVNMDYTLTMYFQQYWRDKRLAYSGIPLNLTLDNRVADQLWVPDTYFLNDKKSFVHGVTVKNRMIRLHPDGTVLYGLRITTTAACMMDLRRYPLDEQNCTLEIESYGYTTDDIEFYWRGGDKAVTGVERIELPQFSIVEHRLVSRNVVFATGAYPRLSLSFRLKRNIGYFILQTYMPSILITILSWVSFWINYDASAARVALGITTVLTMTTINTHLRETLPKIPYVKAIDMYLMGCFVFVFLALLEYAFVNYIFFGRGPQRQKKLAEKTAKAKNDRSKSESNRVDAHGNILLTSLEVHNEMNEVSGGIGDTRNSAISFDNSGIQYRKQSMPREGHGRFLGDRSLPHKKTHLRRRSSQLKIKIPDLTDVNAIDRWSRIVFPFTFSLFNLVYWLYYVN
# T1 sequence (P18507 40-467 isoform P18507-1 limits assumed): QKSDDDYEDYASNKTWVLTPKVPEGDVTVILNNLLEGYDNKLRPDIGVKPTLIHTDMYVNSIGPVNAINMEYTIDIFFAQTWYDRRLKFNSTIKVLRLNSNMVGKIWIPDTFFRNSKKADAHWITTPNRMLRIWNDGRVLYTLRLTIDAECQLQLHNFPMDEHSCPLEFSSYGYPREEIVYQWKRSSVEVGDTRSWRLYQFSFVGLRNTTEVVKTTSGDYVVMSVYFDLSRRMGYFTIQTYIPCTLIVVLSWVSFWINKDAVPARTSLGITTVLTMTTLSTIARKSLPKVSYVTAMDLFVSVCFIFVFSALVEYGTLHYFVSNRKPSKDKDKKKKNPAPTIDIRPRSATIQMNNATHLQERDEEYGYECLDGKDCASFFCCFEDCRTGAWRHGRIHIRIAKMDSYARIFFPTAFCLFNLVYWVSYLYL
row,inhibition at 0.1 µM,Structure (SMILES)
1,51.3%,CCOc1nccc2nc(COc3nn4c(-c5cc(C)on5)nnc4cc3OC)ccc12 [Embodiment 145]
2,46.6%,COc1cc2nnc(-c3cc(C)on3)n2nc1OCc1ccc2ncn(C3CCOC3)c2n1 (centres unmarked) [Embodiment 246]
3,42.6%,COc1cc2nnc(-c3cc(C)on3)n2nc1OCc1ccc2c(n1)CNCC2 [Embodiment 120]
4,45.8%,COc1cc2nnc(-c3cc(C)on3)n2nc1OCc1ccc(OC(F)(F)F)cn1 [Embodiment 61]
5,39.4%,COc1cc2nnc(-c3cc(C)on3)n2nc1OCc1ccc(C#N)cn1 [Embodiment 41]
6,51.2%,CCn1cnc2ccc(COc3nn4c(-c5cc(C)on5)nnc4cc3OC)nc21 [Embodiment 249]
7,38.5%,COc1cc2nnc(-c3cc(C)on3)n2nc1OCc1ccc(F)cn1 [Embodiment 58]
8,42%,COc1cc2nnc(-c3cc(C)on3)n2nc1OCc1ccc2c(=O)n(C3COC3)ccc2n1 [Embodiment 144]
9,54.3%,COc1nccc(COc2nn3c(-c4cc(C)on4)nnc3cc2OC)n1 [Embodiment 72]
10,40.7%,COc1cc2nnc(-c3cc(C)on3)n2nc1OCc1ccc(C2(F)CNC2)cn1 [Embodiment 71]
11,58%,CCN1Cc2nc(COc3nn4c(-c5cc(C)on5)nnc4cc3OC)ccc2C1=O [Embodiment 67]
12,42.9%,COc1cc2nnc(-c3cc(C)on3)n2nc1OCc1ccc(Cl)cn1 [Embodiment 20]
13,49.3%,COc1cc2nnc(-c3cc(C)on3)n2nc1OCc1ccc2nccn2n1 [Embodiment 105]
14,33.9%,COc1cc2nnc(-c3cc(C)on3)n2nc1OCc1ccc2c(n1)CCN(C1CC(F)(F)C1)C2 [Embodiment 184]
15,31.7%,COc1cc2nnc(-c3cc(C)on3)n2nc1OCc1cccc(C2(F)CNC2)n1 [Embodiment 70]
16,50.8%,COc1cc2nnc(-c3cc(C)on3)n2nc1OCc1ccc2c(n1)CCN(CC(F)(F)CO)C2 [Embodiment 196]
17,52.8%,COCCn1ccc2ccc(COc3nn4c(-c5cc(C)on5)nnc4cc3OC)nc21 [Embodiment 92]
18,54.7%,COc1cc2nnc(-c3cc(C)on3)n2nc1OCc1ccc2nn(C3COC3)c(C)c2n1 [Embodiment 258]
19,42.4%,COc1cc2nnc(-c3cc(C)on3)n2nc1OCc1cccc(C(F)(F)F)n1 [Embodiment 45]
20,44.8%,COc1cc2nnc(-c3cc(C)on3)n2nc1OCc1ccc2c(n1)CCN(CC(F)(F)F)C2 [Embodiment 77]
21,47.6%,COc1cc2nnc(-c3cc(C)on3)n2nc1OCc1cc(OC2COC2)ccn1 [Embodiment 172]
22,34.5%,COc1cc2nnc(-c3cc(C)on3)n2nc1OCc1ccc2c(cnn2C)n1 [Embodiment 73]
23,38%,COc1cccnc1COc1nn2c(-c3cc(C)on3)nnc2cc1OC [Embodiment 52]
24,46.7%,COc1cc2nnc(-c3cc(C)on3)n2nc1OCc1ccc2c(cnn2Cc2cc(C)on2)n1 [Embodiment 224]
25,42.2%,COc1cc2nnc(-c3cc(C)on3)n2nc1OCc1ccc2ccn(C3CCOCC3)c2n1 [Embodiment 252]

row,inhibition at 0.1 µM,Structure (SMILES)
1,40.8%,COc1cc2nnc(-c3cc(C)on3)n2nc1OCc1ccc2c(n1)CCN(c1nnc(C)o1)C2 [Embodiment 192]
2,31.4%,COc1cc2nnc(-c3cc(C)on3)n2nc1OCc1ccc2c(ncn2C2CCOCC2)n1 [Embodiment 248]
3,35.9%,COc1cc2nnc(-c3cc(C)on3)n2nc1OCc1ccc2c(n1)NCCO2 [Embodiment 119]
4,54.8%,COc1cc2nnc(-c3cc(C)on3)n2nc1OCc1ccc2c(cnn2C(C)C)n1 [Embodiment 236]
5,37.3%,COc1ccc2nc(COc3nn4c(-c5cc(C)on5)nnc4cc3OC)ccc2c1 [Embodiment 136]
6,32.3%,COc1cc2nnc(-c3cc(C)on3)n2nc1OCc1cccc2ccnn12 [Embodiment 117]
7,47.2%,"COc1cc2nnc(-c3cc(C)on3)n2nc1OCc1ccc(-c2nc(C)no2)cn1 [Embodiment 137, 5-(6-(((7-Methoxy-3-(5-methylisoxazol-3-yl)-[1,2,4]triazolo[4,3-b]pyridazin-6-yl)oxy)methyl)pyridin-3-yl)-3-methyl-1,2,4-oxadiazole]"
8,37.1%,COc1cc2nnc(-c3cc(C)on3)n2nc1OCc1cccc(N(C)C)n1 [Embodiment 3]
9,56.5%,COc1cc2nnc(-c3cc(C)on3)n2nc1OCc1cnc(OC2CCOCC2)cn1 [Embodiment 177]
10,45.8%,COCCCOc1ccc(COc2nn3c(-c4cc(C)on4)nnc3cc2OC)nn1 [Embodiment 15]
11,71.7%,COc1cc2nnc(-c3cc(C)on3)n2nc1OCc1ccc2c(n1)N(C)CCO2 [Embodiment 149]
12,49.7%,COc1cc2nnc(-c3cc(C)on3)n2nc1OCc1ccc2c(n1)CCN(C(=O)N(C)CC(F)(F)F)C2 [Embodiment 204]
13,50.4%,COCCNc1ccc(COc2nn3c(-c4cc(C)on4)nnc3cc2OC)nn1 [Embodiment 159]
14,56.8%,"COc1cc2nnc(-c3cc(C)on3)n2nc1OCc1ccc2c(n1)CCN(C1CN(C(C)=O)C1)C2 [Embodiment 199, 1-(3-(2-(((7-Methoxy-3-(5-methylisoxazol-3-yl)-[1,2,4]triazolo[4,3-b]pyridazin-6-yl)oxy)methyl)-7,8-dihydro-1,6-naphthyridin-6(5H)-yl)azetidin-1-yl)ethan-1-one]"
15,50%,"COc1cc2nnc(-c3cc(C)on3)n2nc1OCc1ccc(C2CCCN2)cn1 (centres unmarked) [Embodiment 69, 3-(7-Methoxy-6-((5-(pyrrolidin-2-yl)pyridin-2-yl)methoxy)-[1,2,4]triazolo[4,3-b]pyridazin-3-yl)-5-methylisoxazole]"
16,44.3%,COc1cc2nnc(-c3cc(C)on3)n2nc1OCc1ccc2c(cnn2Cc2ccccc2)n1 [Embodiment 222]
17,60.4%,COc1cc2nnc(-c3cc(C)on3)n2nc1OCc1ccc(OCC2CCCO2)cn1 (centres unmarked) [Embodiment 106]
18,54.7%,COc1cc2nnc(-c3cc(C)on3)n2nc1OCc1ccc2c(n1)c(C)nn2C1COC1 [Embodiment 242]
19,30.8%,"COc1cc2nnc(-c3cc(C)on3)n2nc1OCc1ccc2c(cnn2CCc2ccccc2)n1 [Embodiment 229, 3-(7-Methoxy-6-(((1-phenethyl-1H-pyrazolo[4,3-b]pyridin-5-yl]methoxy])-[1,2,4]triazolo[4,3-b]pyridazin-3-yl)-5-methylisoxazole]"
20,66.9%,COc1cc2nnc(-c3cc(C)on3)n2nc1OCc1cc(C#N)ccn1 [Embodiment 29]
21,53.1%,COCC(C)Oc1ccc(COc2nn3c(-c4cc(C)on4)nnc3cc2OC)nn1 (centres unmarked) [Embodiment 161]
22,40%,COc1cc2nnc(-c3cc(C)on3)n2nc1OCc1ccn2nccc2n1 [Embodiment 64]
23,48%,COc1cc2nnc(-c3cc(C)on3)n2nc1OCc1ccc2c(cnn2C2CCOCC2)n1 [Embodiment 239]
24,30.4%,CCN1CC(Oc2ccc(COc3nn4c(-c5cc(C)on5)nnc4cc3OC)nc2)C1 [Embodiment 134]
25,47.6%,CCN1CCc2nc(COc3nn4c(-c5cc(C)on5)nnc4cc3OC)ccc2C1 [Embodiment 79]
